Source: publication doi:10.1101/2025.06.12.659322v2 (biorxiv, 2025)

Target: Rv0183 (mtbMGL) (Mycobacterium tuberculosis, UniProt O07427)
Assay: biochemical

Sequence of Rv0183 (mtbMGL) (O07427 whole entry): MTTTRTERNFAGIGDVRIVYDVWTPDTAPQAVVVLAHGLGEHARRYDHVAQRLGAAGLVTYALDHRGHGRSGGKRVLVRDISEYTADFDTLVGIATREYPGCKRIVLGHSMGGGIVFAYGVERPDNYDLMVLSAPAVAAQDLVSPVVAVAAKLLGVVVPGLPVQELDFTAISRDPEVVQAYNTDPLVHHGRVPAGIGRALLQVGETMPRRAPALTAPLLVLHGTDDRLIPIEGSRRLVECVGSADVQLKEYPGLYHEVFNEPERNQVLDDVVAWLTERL

Row | Structure (SMILES) | IC50 [µM]
1 | COc1ccc(-n2nc(C(=O)N3CC[C@@H](O)C3)cc2-c2ccccc2Cl)cc1 [ELF1, (R)-(5-(2-chlorophenyl)-1-(4-methoxyphenyl)-1H-pyrazol-3-yl)(3-hydroxypyrrolidin-1-yl)methanone] | 9.55
2 | COc1ccc(Nc2cc(-n3cc(C(=O)N4CC[C@@H](O)C4)cn3)ncn2)cc1 [ELF5, (R)-(3-hydroxypyrrolidin-1-yl)(1-(6-((4-methoxyphenyl)amino)pyrimidin-4-yl)-1H-pyrazol-4-yl)methanone] | 8.51
3 | O=C(c1ccc(-c2cnc(-c3cccc(OC(F)(F)F)c3)o2)cc1)N1CC[C@@H](O)C1 [ELF8, (R)-(3-hydroxypyrrolidin-1-yl)(4-(2-(3-(trifluoromethoxy)phenyl)oxazol-5-yl)phenyl)methanone] | 4.26
